Drawing on PubChem BioAssay AID330 (DTP/NCI, 2004), this text covers T/C for 23 compounds.

This test concerns P388 leukemia ip, CD2F1 mice, survival T/C. The experiment in a line: NCI In Vivo Anticancer Drug Screen. Data for tumor model P388 Leukemia (intraperitoneal) in CD2F1 (CDF1) mice. Particulars: endpoint: median survival time, higher = longer survival. In a few lines: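 Mice carrying the transplanted tumor received test compound or vehicle. Survival was recorded in each group, and the value is the treated-group measurement divided by that of the vehicle-treated control group.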

Setting [1] is: dose: 1.56 mg/kg/injection, schedule: Q01DX009 (ip), vehicle: saline.
The mark [2] stands for this setting: dose: 50.0 mg/kg/injection, schedule: Q01DX009 (ip), vehicle: saline.
Where [3] appears, read: dose: 100.0 mg/kg/injection, schedule: Q01DX009 (ip), vehicle: saline.
Setting [4] is: dose: 200.0 mg/kg/injection, schedule: Q01DX009 (ip), vehicle: saline.
The mark [5] stands for this setting: dose: 100.0 mg/kg/injection, schedule: Q04DX003 (ip), vehicle: saline.
Where [6] appears, read: dose: 200.0 mg/kg/injection, schedule: Q04DX003 (ip), vehicle: saline.
Setting [7] is: dose: 400.0 mg/kg/injection, schedule: Q04DX003 (ip), vehicle: saline.
Where [8] appears, read: dose: 12.5 mg/kg/injection, schedule: Q01DX009 (ip), vehicle: saline with Tween-80.
The mark [9] stands for this setting: dose: 25.0 mg/kg/injection, schedule: Q01DX009 (ip), vehicle: saline with Tween-80.
The mark [10] stands for this setting: dose: 50.0 mg/kg/injection, schedule: Q01DX009 (ip), vehicle: saline with Tween-80.
The mark [11] stands for this setting: dose: 100.0 mg/kg/injection, schedule: Q01DX009 (ip), vehicle: saline with Tween-80.
The mark [12] stands for this setting: dose: 12.0 mg/kg/injection, schedule: Q01DX009 (ip), vehicle: Klucel (hydroxypropylcellulose) (HPC).

Values joined by “and” are separate entries in the source; they are usually repeats but may differ in a detail not shown here. Equal entries are not always repeated. Toxic doses and inconclusive results are not listed.

As to `CC(c1ccccc1)[P+](c1ccccc1)(c1ccccc1)c1ccccc1` (configuration not stated), the T/C (dose: 0.78 mg/kg/injection, schedule: Q01DX009 (ip), vehicle: saline) was 112 % of control and 93 % of control; the T/C under setting [1] was 109 % of control and 118 % of control; the T/C (dose: 3.13 mg/kg/injection, schedule: Q01DX009 (ip), vehicle: saline) was 118 % of control and 121 % of control.
Take `CC(=O)CC1(O)C(=O)C(C(C)(C)C)=CC2(C(C)(C)C)OC12` (configuration not stated): the T/C by setting is: under setting [2], 102 % of control; under setting [3], 95 % of control; under setting [4], 95 % of control.
Turning to `C=C(CBr)C(=O)OCC`, the T/C is 103 % of control (dose: 7.5 mg/kg/injection, schedule: Q01DX005 (ip), vehicle: saline with Tween-80); 88 % of control (dose: 15.0 mg/kg/injection, schedule: Q01DX005 (ip), vehicle: saline with Tween-80); 103 % of control (dose: 30.0 mg/kg/injection, schedule: Q01DX005 (ip), vehicle: saline with Tween-80).
In the case of `Cc1ccc(S(=O)(=O)/N=C/[N-][n+]2cccc(C)c2)cc1`, the T/C by setting is: under setting [5], 104 % of control; under setting [6], 97 % of control; under setting [7], 97 % of control.
As to `COc1ccc(CCNc2ccc(OC)c(OC)c2)cc1OC`, the T/C is 91 % of control (dose: 12.5 mg/kg/injection, schedule: Q01DX009 (ip), vehicle: water); 98 % of control (dose: 25.0 mg/kg/injection, schedule: Q01DX009 (ip), vehicle: water); 100 % of control (dose: 50.0 mg/kg/injection, schedule: Q01DX009 (ip), vehicle: water); 95 % of control (dose: 100.0 mg/kg/injection, schedule: Q01DX009 (ip), vehicle: water); 90 % of control (dose: 200.0 mg/kg/injection, schedule: Q01DX009 (ip), vehicle: water).
For the compound `CCN(CC)CC(C)Nc1ccc(C)c2sc3ccccc3c(=O)c12` (configuration not stated), the T/C is 175 % of control (dose: 75.0 mg/kg/injection, schedule: Q01DX009 (ip), vehicle: saline) and 100 % of control (dose: 300.0 mg/kg/injection, schedule: Q01DX009 (ip), vehicle: saline).
As to `CCCCCCCC(=S)SCCCC(=O)O`, the T/C is, setting by setting: (dose: 50.0 mg/kg/injection, schedule: Q01DX009 (ip), vehicle: Klucel (hydroxypropylcellulose) (HPC)) 100 % of control; (dose: 100.0 mg/kg/injection, schedule: Q01DX009 (ip), vehicle: Klucel (hydroxypropylcellulose) (HPC)) 100 % of control; (dose: 200.0 mg/kg/injection, schedule: Q01DX009 (ip), vehicle: Klucel (hydroxypropylcellulose) (HPC)) 99 % of control.
On to `COc1ccc(NC(C)=NC(C)C)cc1`, for which the T/C under setting [8] was 101 % of control and 88 % of control; the T/C under setting [9] was 92 % of control; the T/C (dose: 50.0 mg/kg/injection, schedule: Q01DX009 (ip), vehicle: saline + Tween-80 + alcohol) was 98 % of control; the T/C under setting [10] was 100 % of control and 101 % of control.
As to `CCCC(OC(=O)c1ccc([N+](=O)[O-])cc1)C(=O)O` (configuration not stated), the T/C reads like this: (dose: 25.0 mg/kg/injection, schedule: Q01DX001 (ip), vehicle: Klucel (hydroxypropylcellulose) (HPC)) 95 % of control; (dose: 50.0 mg/kg/injection, schedule: Q01DX001 (ip), vehicle: Klucel (hydroxypropylcellulose) (HPC)) 105 % of control; (dose: 100.0 mg/kg/injection, schedule: Q01DX001 (ip), vehicle: Klucel (hydroxypropylcellulose) (HPC)) 100 % of control.
As for `CC1(C)CC2(CC(C)(C)N1O)NC(=O)OC2=O`, the T/C is 97 % of control (dose: 60.0 mg/kg/injection, schedule: Q01DX005 (ip), vehicle: saline with Tween-80); 97 % of control (dose: 120.0 mg/kg/injection, schedule: Q01DX005 (ip), vehicle: saline with Tween-80); 106 % of control (dose: 240.0 mg/kg/injection, schedule: Q01DX005 (ip), vehicle: saline with Tween-80).
Regarding `C1CC[N-]CC1.C1CC[N-]CC1.C1CC[N-]CC1.C1CC[N-]CC1.[Pt+4]`, the T/C was 95 % of control (dose: 2.0 mg/kg/injection, schedule: Q01DX009 (ip), vehicle: saline); 89 % of control (dose: 4.0 mg/kg/injection, schedule: Q01DX009 (ip), vehicle: saline); 93 % of control (dose: 8.0 mg/kg/injection, schedule: Q01DX009 (ip), vehicle: saline).
In the case of `COC(=O)Cn1/c(=N\N=C\c2ccc(C)cc2)sc2ccccc21`, the T/C is 91 % of control (dose: 100.0 mg/kg/injection, schedule: Q01DX001 (ip), vehicle: saline with Tween-80); 91 % of control (dose: 200.0 mg/kg/injection, schedule: Q01DX001 (ip), vehicle: saline with Tween-80); 89 % of control (dose: 400.0 mg/kg/injection, schedule: Q01DX001 (ip), vehicle: saline with Tween-80).
Take `O=C(O)/C=C/c1csc(-c2ccc(Cl)cc2)n1`: the T/C by setting is: under setting [10], 88 % of control; under setting [11], 88 % of control; (dose: 200.0 mg/kg/injection, schedule: Q01DX009 (ip), vehicle: saline with Tween-80) 106 % of control.
As for `CC12CC3OC(=O)C1COC14OC5(C2C1=O)C(O)(CCC1C4CC(O)C2(O)CC=CC(=O)C12C)C(=O)OC35C` (configuration not stated), the T/C by setting is: under setting [12], 94 % of control; (dose: 24.0 mg/kg/injection, schedule: Q01DX009 (ip), vehicle: Klucel (hydroxypropylcellulose) (HPC)) 110 % of control; (dose: 48.0 mg/kg/injection, schedule: Q01DX009 (ip), vehicle: Klucel (hydroxypropylcellulose) (HPC)) 109 % of control.
In the case of `COC(=O)/C(C(C)=O)=C1\C(=O)OCC1(C)C`, the T/C was 102 % of control under setting [5], 105 % of control under setting [6] and 100 % of control under setting [7].
As for `CCCCC(C)(CN(C)C)C(=O)/C=C/c1ccccc1` (configuration not stated), the T/C under setting [2] is 108 % of control, the T/C under setting [3] is 115 % of control and the T/C under setting [4] was 86 % of control.
Turning to `Cc1ncc(C(=O)O)n1Cc1ccccc1`, the T/C (dose: 60.0 mg/kg/injection, schedule: Q01DX005 (ip), vehicle: Klucel (hydroxypropylcellulose) (HPC)) was 94 % of control; the T/C (dose: 120.0 mg/kg/injection, schedule: Q01DX005 (ip), vehicle: Klucel (hydroxypropylcellulose) (HPC)) was 93 % of control; the T/C (dose: 240.0 mg/kg/injection, schedule: Q01DX005 (ip), vehicle: Klucel (hydroxypropylcellulose) (HPC)) is 93 % of control.
As for `O=C(CCc1ccccc1)c1c(O)c(Cc2ccccc2O)c2c(c1O)Cc1ccccc1O2`, the T/C (dose: 1.5 mg/kg/injection, schedule: Q01DX009 (ip), vehicle: Klucel (hydroxypropylcellulose) (HPC)) is 100 % of control; the T/C (dose: 3.0 mg/kg/injection, schedule: Q01DX009 (ip), vehicle: Klucel (hydroxypropylcellulose) (HPC)) was 98 % of control; the T/C (dose: 6.0 mg/kg/injection, schedule: Q01DX009 (ip), vehicle: Klucel (hydroxypropylcellulose) (HPC)) was 98 % of control; the T/C under setting [12] was 98 % of control.
`CSCc1cccc(Cl)c1N`: the T/C was 102 % of control under setting [9], 106 % of control under setting [10] and 106 % of control under setting [11].
For the compound `[N-]=[N+]=NC(=O)c1cccs1`, the T/C under setting [8] was 100 % of control, the T/C under setting [9] is 101 % of control and the T/C under setting [10] is 100 % of control.
In the case of `Cc1c2cc3c(cc2cc2c4cc5c(cc4cc[n+]12)OCO5)OCO3` (tested in a mixture with another compound), the T/C (dose: 0.44 mg/kg/injection, schedule: Q04DX003 (ip), vehicle: saline) is 122 % of control; the T/C (dose: 5.0 mg/kg/injection, schedule: Q04DX003 (ip), vehicle: saline) was 154 % of control; the T/C (dose: 7.5 mg/kg/injection, schedule: Q04DX003 (ip), vehicle: saline) was 150 % of control.
In the case of `CCOP1(=S)NNP(=S)(OCC)NN1` (configuration not stated), the T/C (dose: 50.0 mg/kg/injection, schedule: Q01DX005 (ip), vehicle: Klucel (hydroxypropylcellulose) (HPC)) is 96 % of control; the T/C (dose: 100.0 mg/kg/injection, schedule: Q01DX005 (ip), vehicle: Klucel (hydroxypropylcellulose) (HPC)) is 93 % of control; the T/C (dose: 200.0 mg/kg/injection, schedule: Q01DX005 (ip), vehicle: Klucel (hydroxypropylcellulose) (HPC)) is 104 % of control.
For the compound `O=C1C(F)=C(N2CC2)C(=O)C(F)=C1N1CC1`, the T/C was 115 % of control under setting [1]; 114 % of control (dose: 3.12 mg/kg/injection, schedule: Q01DX009 (ip), vehicle: saline); 150 % of control (dose: 6.25 mg/kg/injection, schedule: Q01DX009 (ip), vehicle: saline).
